In patent US11820745B2, “PKC-activating compounds for the treatment of neurodegenerative diseases” (Synaptogenix, Inc., priority 2008, dated 2023):

Key:
PKCε = target: T1, PKCε (Homo sapiens, UniProt Q02156); test: Protein kinase C assay, purified/recombinant PKC epsilon (32P incorporation into histones); format: biochemical
T1 construct: purchased Calbiochem
T1 sequence (Q02156 1-737): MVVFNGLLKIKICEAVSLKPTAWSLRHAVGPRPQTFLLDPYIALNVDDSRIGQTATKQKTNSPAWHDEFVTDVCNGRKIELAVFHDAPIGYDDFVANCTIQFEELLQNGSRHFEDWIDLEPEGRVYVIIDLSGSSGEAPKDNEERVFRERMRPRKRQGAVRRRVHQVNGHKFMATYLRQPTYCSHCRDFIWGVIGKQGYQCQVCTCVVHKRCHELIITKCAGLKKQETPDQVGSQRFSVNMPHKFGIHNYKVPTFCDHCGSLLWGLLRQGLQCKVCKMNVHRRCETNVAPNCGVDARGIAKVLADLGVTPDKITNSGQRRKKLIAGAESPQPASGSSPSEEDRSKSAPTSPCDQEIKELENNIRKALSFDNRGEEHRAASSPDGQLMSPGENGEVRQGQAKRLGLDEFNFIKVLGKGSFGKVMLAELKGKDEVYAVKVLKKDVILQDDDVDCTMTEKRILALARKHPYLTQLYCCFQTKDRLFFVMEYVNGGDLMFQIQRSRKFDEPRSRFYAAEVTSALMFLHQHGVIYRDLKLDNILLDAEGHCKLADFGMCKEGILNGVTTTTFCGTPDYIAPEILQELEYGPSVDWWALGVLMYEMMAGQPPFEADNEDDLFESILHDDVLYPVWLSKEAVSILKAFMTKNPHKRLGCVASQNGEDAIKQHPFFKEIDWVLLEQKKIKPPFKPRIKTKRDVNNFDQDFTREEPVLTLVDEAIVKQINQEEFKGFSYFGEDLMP
Experimental: Protein kinase C assay. Recombinant PKC (1 ng of alpha or epsilon isofonn) was mixed with the BR-101 (UCP-LA) in the presence of 10 micromoiar histones, 5 mM CaCl2, 1.2 μg/μl phosphatidyl-L-serine, 0.18 μg/μl 1,2-dioctanoyl-sn-glycerol (DAG), […], […] (pH 7.4), 0.8 tnIVI EDTA, 4 mM EGTA, 4% glycerol, 8 μg/ml aprotinin, 8 μ/ml leupeptin, and 2 mM benzamidine. 0.5 micro Ci [^y32P]ATP was added. The incubation mixture was incubated for 15 min at 37 degrees in a total volume of 10 microliters. The reaction was stopped by spotting the reaction mixtures on 1×2 cm strips of cellulose phosphate paper (Whatman P81) and immediately washing twice for 1 hr in 0.5% H3PO4. The cellulose phosphate strips were counted in a scintillation counter. In some experiments, phosphatidylserine, diacylglycerol, and/or calcium were removed.
Protein kinase C assay. Rat hippocampal cells were cultured and scraped in 0.2 ml homogenization buffer (20 triM Tris-HCl, pH 7.4, 50 mM NaF, 1 μg/ml leupeptin, and 0.1 mM PMSF) and homogenized by sonication in a Marsonix micro-probe sonicator (5 see, 10W). To measure PKC, 10 ul of cell homogenate or purified. PKC isozyme (purchased from Calbiochem) was incubated for 15 min at 37° C. in the presence of 10 μM histones, 4.89 mM CaCl2, 1.2 μg/μl phosphatidyl-L-serine, 0.18 μg/μl 1,2-dioctanoyl-sn-glycerol, 10 mM MgCl2, 20 mM HEPES (pH 7.4), 0.8 mM EDTA, 4 mM EGTA, 4% glycerol, 8 μg/ml aprotinin, 8 μg/ml leupeptin, and 2 mM benzamidine. 0.5 μCi [^γ-32P]ATP was added and ^32P-phosphoprotein formation was measured by adsorption onto phosphocellulose as described previously. Nelson and Alkon, J. Neurochemistry. 1995; 65: 2350-57. For measurements of activation by BR-101 (DCP-LA) and similar compounds, PKC activity was measured in the absence of diacylglycerol and phosphatidyl serine, as described by Kanno et al., and PKC δ, ε, η, and μ were measured in the absence of added EGTA and CaCl2, as described by Kanno et al., J. Lipid Res. 2006; 47: 1146-50. Low concentrations of Ca^2+ are used because high Ca^2+ interacts with the PKC phosphatidylserine binding site and prevents activation. For measurements of bryostatin activation, 1,2-diacylglycerol was omitted unless otherwise stated.
To determine their PKC isozyme specificity, the new compounds were preincubated with purified PKC for five minutes and the PKC activity was measured radiometrically.

Aβ = Aβ levels in N2a neuroblastoma cells transfected with human APPSwe/PSID (Aβ1-42 ELISA); format: cell-based, mouse; conditions: for levels of intracellular Aβ / levels of secreted Aβ: 24 h incubation, various concentrations; for levels of intracellular Aβ: FIG. 7a; for levels of secreted Aβ: FIG. 7b; for concentration dependence of Aβ inhibition: BR-101 and BR-111 up to 10 to 100 μM
Experimental: Cell culture. Rat hippocampal H19-71GF-IR cells (ATCC, Manassas, Va.) were plated onto poly-L-lysine coated plates and grown at 35° C. in DMEM/10% FCS for several days until about 50% coverage was obtained. The cells were then induced to differentiate into a neuronal phenotype by replacing the medium with 5 ml N2 medium containing 10 ng/ml basic fibroblast growth factor at 39° C. and grown in T-75 flasks at 37° C. Human SH-SY5Y neuroblastoma cells (ATCC) were cultured in 45% F12K/45% MEM/10% FCS. Mouse N2A neuroblastoma cells were cultured in DMEM/10% FCS without glutamine. Rat hippocampal neurons from 18-day-old embryonic
(§1) AB Measurement and Cell Viability Assay. Aβ was measured using an Aβ1-42 human fluorimetric ELISA kit (Invitrogen) according to the manufacturer's instructions. Results were measured in a Biotek Synergy HT microplate reader. AlamarBlue and CyQuant NF (Invitrogen) according to the manufacturer's instructions.
To measure the effects of PKCε activation on Aβ production, we used mouse neuro2a (N2a) neuroblastoma cells transfected with human APPSwe/PSID, which produce large quantities of Aβ. Petanceska et al., J Neurochem. 1996; 74: 1878-84. […] With bryostatin, which activates PKC by binding to the diacylglycerol-binding site, the inhibition was biphasic, with concentrations of 20 nM or higher producing no net effect. This may be explained by the ability of this class of PKC activators to downregulate PKC when used at high concentrations.

[1] = system: SH-SY5Y neuroblastoma cells; test: Cell survival and proliferation (alamar Blue, CyQuant) in SH-SY5Y neuroblastoma cells; format: cell-based, human; conditions: for effect on proliferation: CyQuant staining, FIG. 11b; for effect on cell survival: alamar Blue, FIG. 11a
Experimental: as §1

TACE = TACE assay in N2a mouse neuroblastoma cells; format: cell-based; conditions: FIG. 9a
Experimental: TACE Assay. TACE was measured by incubating 5 μl cell homogenate, 3 μl buffer (50 mM Tris-HCl 7.4 plus 25 mM NaCl plus 4% glycerol), and 1 of 100 μM TACE substrate IV (Aβz-LAQAVRSSSR-DPa) (Calbiochem) for 20 min at 37° in 1.5-ml polypropylene centrifuge tubes (Jin et al., Anal Biochem. 2002; 302: 269-75). The reaction was stopped by cooling to 4° C. The samples were diluted to 1 ml and the fluorescence was rapidly measured (ex=320 nm, em=420 nm) in a Spex Fluorolog 2 spectrofluorometer.

SMILES | activation of purified PKCε (PKCε; FIG. 3) | concentration needed to activate PKC, times lower than for BR-101 (DCP-LA) (PKCε; FIG. 3) | levels of intracellular Aβ (Aβ) | levels of secreted Aβ (Aβ) | concentration dependence of Aβ inhibition (Aβ) | effect on proliferation [1] | effect on cell survival [1] | TACE activity (TACE) | activation of PKCε (PKCε; at 10 μM, preincubated with purified PKC for five minutes) | activation of PKCε (PKCε; purified PKCε, lowest concentration tested (10 nM), FIG. 2) [fold]
CCC1CC1CC1CC1CC1CC1CC1CC1CC1CC1CC1CC1CCC(=O)OC (stereo not shown) [BR-111, methyl-3-(2-((2-((2-((2-((2-((2-ethylcyclopropyl)methyl)cyclopropyl)methyl)cyclopropyl)methyl)-cyclopropyl)methyl)cyclopropyl)methyl)cyclopropyl)propanoate] | activated purified PKCε to a similar extent | approx. 100 times | markedly reduced | markedly reduced | monotonically increasing inhibition | no effect | no effect | small increases | – | –
CCCCCC1CC1CC1CC1CCCCCCCC(=O)O (stereo not shown) [BR-101, 8-[2-(2-pentyl-cyclopropylmethyl)-cyclopropyl]-octanoic acid] | – | – | markedly reduced | markedly reduced | monotonically increasing inhibition | no effect | no effect | small increases | effective activator | 2.75
